Experimental data: patent US9266877B2, “Apoptosis-inducing agents for the treatment of cancer and immune and autoimmune diseases” (priority 2011, dated 2016)

Molecular target: Bcl-xL (Homo sapiens (Human), UniProt Q07817)
Experiment: Time Resolved-Fluorescence Resonance Energy Transfer (TR-FRET) binding assay, competition with F-Bak
Settings: not given

Bcl-xL, sequence (Q07817 whole entry): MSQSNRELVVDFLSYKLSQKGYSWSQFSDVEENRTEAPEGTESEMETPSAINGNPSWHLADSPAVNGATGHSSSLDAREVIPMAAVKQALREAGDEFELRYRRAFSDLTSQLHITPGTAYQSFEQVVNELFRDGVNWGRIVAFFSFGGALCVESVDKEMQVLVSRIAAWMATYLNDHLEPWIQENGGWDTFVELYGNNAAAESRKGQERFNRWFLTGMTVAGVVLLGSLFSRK

**Q.** Which Ki does the source give for Cc1c(-c2ccc(N3CCc4cccc(C(=O)Nc5nc6ccccc6s5)c4C3)nc2C(=O)O)cccc1N(C)C1CCCC(C)(C)C1 (centres unmarked) [Example 159, 6-[8-(1,3-benzothiazol-2-ylcarbamoyl)-3,4-dihydroisoquinolin-2(1H)-yl]-3-{3-[(3,3-dimethylcyclohexyl)(methyl)amino]-2-methylphenyl}pyridine-2-carboxylic acid] here?
**A.** 0.0002 µM

Same assay, conditions: competition with F-Bak probe, GST-Bcl-xL; read-out: TR-FRET binding Bcl-xL Ki

**Q.** With Cc1[nH]c(C#N)c(CC2CCCCC2)c1-c1ccc(N2CCc3cccc(C(=O)Nc4nc5ccccc5s4)c3C2)nc1C(=O)NS(C)(=O)=O [Example 171, N-(1,3-benzothiazol-2-yl)-2-{5-[5-cyano-4-(cyclohexylmethyl)-2-methyl-1H-pyrrol-3-yl]-6-[(methylsulfonyl)carbamoyl]pyridin-2-yl}-1,2,3,4-tetrahydroisoquinoline-8-carboxamide] as the compound, how does the Ki read?
**A.** < 0.0001 µM

System: FL5.12 cells transfected with Bcl-XL
Experiment: FL5.12 Cellular Assay (cell viability, CellTiter-Glo)
Assay type: cell-based, mouse
Settings: Mus musculus, FL5.12, 24 h, read-out: FL5.12 Bcl-xL, IL3, EC 50 (nM)
Protocol: For assaying the compound activity, the cells were exchanged into an IL-3-depleted deprivation media, which was identical to the growth media except for the absence of FBS and WEHI-3B conditional media, for 2 days. Then the cells were exchanged to 3% FBS assay media (RPMI with 2 mM glutamine, 1% 100 mM sodium pyruvate, 2% 1 M HEPES, 4 μL/L of β-mercaptoethanol, 1% penicillin-streptomycin, 3% FBS). Compounds in series dilutions were added, and the cells were cultured for 24 hours. […] Cell viability was assayed using the CellTiter-Glo assay (Promega Corp., Madison, Wis.) according to the manufacturer instructions. Individual determinations were the result of duplicate values.

**Q.** Cc1[nH]c(C#N)c(CC2CCCCC2)c1-c1ccc(N2CCc3cccc(C(=O)Nc4nc5ccccc5s4)c3C2)nc1C(=O)NS(C)(=O)=O [Example 171, N-(1,3-benzothiazol-2-yl)-2-{5-[5-cyano-4-(cyclohexylmethyl)-2-methyl-1H-pyrrol-3-yl]-6-[(methylsulfonyl)carbamoyl]pyridin-2-yl}-1,2,3,4-tetrahydroisoquinoline-8-carboxamide] was tested. Which EC50 did it give?
**A.** 97 nM

**Q.** Which EC50 does the source give for Cc1c(OC2CCCC(C)(C)C2)cccc1-c1ccc(N2CCc3cccc(C(=O)Nc4nc5ccccc5s4)c3C2)nc1C(=O)O (centres unmarked) [Example 121, 6-[8-(1,3-benzothiazol-2-ylcarbamoyl)-3,4-dihydroisoquinolin-2(1H)-yl]-3-{3-[(3,3-dimethylcyclohexyl)oxy]-2-methylphenyl}pyridine-2-carboxylic acid] here?
**A.** 87 nM

Same assay, conditions: mouse FL5.12 cells transfected with Bcl-XL, IL-3-depleted, 3% FBS assay media, 24 hours; read-out: FL5.12 Bcl-xL, IL3, EC 50

**Q.** For CC(C)(C)Cn1cc(-c2ccc(N3CCc4cccc(C(=O)Nc5nc6ccccc6s5)c4C3)nc2C(=O)O)cn1 [Example 59, 6-[8-(1,3-benzothiazol-2-ylcarbamoyl)-3,4-dihydroisoquinolin-2(1H)-yl]-3-[1-(2,2-dimethylpropyl)-1H-pyrazol-4-yl]pyridine-2-carboxylic acid], which EC50 is on record?
**A.** > 1000 nM

**Q.** With O=C(Nc1nc2ccccc2s1)c1cccc2c1CN(c1ccc(-c3cnn(CCc4ccccc4)c3)c(C(=O)O)n1)CC2 [Example 38, 6-[8-(1,3-benzothiazol-2-ylcarbamoyl)-3,4-dihydroisoquinolin-2(1H)-yl]-3-[1-(2-phenylethyl)-1H-pyrazol-4-yl]pyridine-2-carboxylic acid] as the compound, how does the EC50 read?
**A.** > 1000 nM

**Q.** COCCCC1(Cn2ncc(-c3ccc(N4CCc5cccc(C(=O)Nc6nc7ccccc7s6)c5C4)nc3C(=O)O)c2C)CCCCC1 [Example 97, 6-[8-(1,3-benzothiazol-2-ylcarbamoyl)-3,4-dihydroisoquinolin-2(1H)-yl]-3-(1-{[1-(3-methoxypropyl)cyclohexyl]methyl}-5-methyl-1H-pyrazol-4-yl)pyridine-2-carboxylic acid] was tested. Which EC50 did it give?
**A.** < 1 nM

**Q.** For O=C(Nc1nc2ccccc2s1)c1cccc2c1CN(c1ccc(-c3cnn(Cc4ccccn4)c3)c(C(=O)O)n1)CC2 [Example 26, 6-[8-(1,3-benzothiazol-2-ylcarbamoyl)-3,4-dihydroisoquinolin-2(1H)-yl]-3-[1-(pyridin-2-ylmethyl)-1H-pyrazol-4-yl]pyridine-2-carboxylic acid], which EC50 is on record?
**A.** > 1000 nM

**Q.** How did the EC50 turn out when COc1ccc2nc(NC(=O)c3cccc4c3CN(c3ccc(-c5cnn(Cc6ccccc6)c5)c(C(=O)O)n3)CC4)sc2c1 [Example 11, 3-(1-benzyl-1H-pyrazol-4-yl)-6-{8-[(6-methoxy-1,3-benzothiazol-2-yl)carbamoyl]-3,4-dihydroisoquinolin-2(1H)-yl}pyridine-2-carboxylic acid] was run?
**A.** > 1000 nM

**Q.** Which EC50 does the source give for O=C(Nc1nc2cccc(Cl)c2s1)c1cccc2c1CN(c1ccc(-c3cnn(Cc4ccccc4)c3)c(C(=O)O)n1)CC2 [Example 21, 3-(1-benzyl-1H-pyrazol-4-yl)-6-{8-[(7-chloro-1,3-benzothiazol-2-yl)carbamoyl]-3,4-dihydroisoquinolin-2(1H)-yl}pyridine-2-carboxylic acid] here?
**A.** > 1000 nM

**Q.** O=C(Nc1nc2ccccc2s1)c1cccc2c1CN(c1ccc(-c3cnn(Cc4ccc(Cl)cc4)c3)c(C(=O)O)n1)CC2 [Example 15, 6-[8-(1,3-benzothiazol-2-ylcarbamoyl)-3,4-dihydroisoquinolin-2(1H)-yl]-3-[1-(4-chlorobenzyl)-1H-pyrazol-4-yl]pyridine-2-carboxylic acid] was tested. Which EC50 did it give?
**A.** > 1000 nM

**Q.** How did the EC50 turn out when N#Cc1cccc(Cn2cc(-c3ccc(N4CCc5cccc(C(=O)Nc6nc7ccccc7s6)c5C4)nc3C(=O)O)cn2)c1 [Example 24, 6-[8-(1,3-benzothiazol-2-ylcarbamoyl)-3,4-dihydroisoquinolin-2(1H)-yl]-3-[1-(3-cyanobenzyl)-1H-pyrazol-4-yl]pyridine-2-carboxylic acid] was run?
**A.** > 1000 nM

**Q.** How did the EC50 turn out when O=C(Nc1nc2ccccc2s1)c1cccc2c1CN(c1ccc(-c3cccc(Oc4ccccc4)c3)c(C(=O)O)n1)CC2 [Example 103, 6-[8-(1,3-benzothiazol-2-ylcarbamoyl)-3,4-dihydroisoquinolin-2(1H)-yl]-3-(3-phenoxyphenyl)pyridine-2-carboxylic acid] was run?
**A.** > 1000 nM

**Q.** For O=C(Nc1nc2ccccc2s1)c1cccc2c1CN(c1ccc(-c3cnn(Cc4cccc(O)c4)c3)c(C(=O)O)n1)CC2 [Example 17, 6-[8-(1,3-benzothiazol-2-ylcarbamoyl)-3,4-dihydroisoquinolin-2(1H)-yl]-3-[1-(3-hydroxybenzyl)-1H-pyrazol-4-yl]pyridine-2-carboxylic acid], which EC50 is on record?
**A.** > 1000 nM

**Q.** Which EC50 does the source give for COc1cccc(Cn2cc(-c3ccc(N4CCc5cccc(C(=O)Nc6nc7ccccc7s6)c5C4)nc3C(=O)O)cn2)c1 [Example 14, 6-[8-(1,3-benzothiazol-2-ylcarbamoyl)-3,4-dihydroisoquinolin-2(1H)-yl]-3-[1-(3-methoxybenzyl)-1H-pyrazol-4-yl]pyridine-2-carboxylic acid] here?
**A.** > 1000 nM

**Q.** How did the EC50 turn out when Cc1c(-c2ccc(N3CCc4cccc(C(=O)Nc5nc6ccccc6s5)c4C3)nc2C(=O)O)cnn1C[C@@H]1CC[C@@H]2C[C@H]1C2(C)C [Example 85, 6-[8-(1,3-benzothiazol-2-ylcarbamoyl)-3,4-dihydroisoquinolin-2(1H)-yl]-3-(1-{[(1R,2R,5R)-6,6-dimethylbicyclo[3.1.1]hept-2-yl]methyl}-5-methyl-1H-pyrazol-4-yl)pyridine-2-carboxylic acid] was run?
**A.** 12 nM

**Q.** How did the EC50 turn out when O=C(Nc1nc2ccccc2s1)c1cccc2c1CN(c1ccc(-c3cnn(Cc4cccnc4)c3)c(C(=O)O)n1)CC2 [Example 3, 6-[8-(1,3-benzothiazol-2-ylcarbamoyl)-3,4-dihydroisoquinolin-2(1H)-yl]-3-[1-(pyridin-3-ylmethyl)-1H-pyrazol-4-yl]pyridine-2-carboxylic acid] was run?
**A.** > 1000 nM
